Test results as given in patent US8399466B2, “Composition for regenerative treatment of cartilage disease” (Mitsubishi Tanabe Pharma Corporation, priority 2001, dated 2013).

Key:
[1] = system: human articular chondrocytes; assay: Increase of intracellular cAMP in human articular chondrocytes (cAMP EIA); type: cell-based; conditions: PGE2 1 μM, 30 minutes, vehicle 0.4
Protocol: Human articular cartilage (articular cartilage of degenerative malum coxae patient) was soaked in phosphate buffer (pH 7.2) and only the cortical layer of the joint portion was scrapped with, a knife into a 50 ml tube containing same buffer. The collected knee joint cortical layer was cut into as small sections as possible on a dish with a razor and transferred to a centrifuge tube.
To the centrifuge tube, phosphate buffer (pH 7.2) containing 1 mg/ml of hyaluronidase (SIGMA: Cat. No. H-3506) was added and shaken at 37° C. for 15 minutes. The precipitates were separated by centrifugation (2,000 rpm, 5 minutes) and added to Hank's balanced salt solution (GIBCO; Cat. No. 15050-065) containing 0.25% trypsin and shaken at 37° C. for 30 minutes.
After separation of precipitates by centrifugation (2,000 rpm, 5 minutes), α-minimum essential medium (GIBCO; Cat. No. 12571-063) containing 0.25% collagenase for cell diffusion (Wako Pure Chemical Industries, Ltd., 034-10533) and 10% fetal calf serum (GIBCO; Cat. No. 10099-141) were added to the precipitates and shaken at 37° C. overnight.
Cartilage fragments were removed using a 40 μm Cell Strainer (FALCON; Cat. No. 2340), and α-minimum essential medium containing 10% fetal calf serum was added to the collagenase-treated cells and centrifuged (1,400 rpm, 10 minutes).
The precipitates were washed three times with α-minimum essential medium containing 10% fetal calf serum and suspended in the same medium to an appropriate volume and seeded into 48-well plates (50,000 cells/well). On the next day, the medium was replaced with α-minimum essential medium containing 10% fetal calf serum. The α-minimum essential medium used contained antibiotics (100 U/ml penicillin G and 100 μg/ml streptomycin sulfate) and an antifungal (0.25 μg/ml amphotericin B) (GIBCO; Cat. No. 15240-062). […]
After 30 minutes cultivation, medium was discarded. […] The residue was dissolved in an assay buffer attached with cAMP EIA system (Amersham Pharmacia Biotech; Cat. No. RPN225) and cAMP concentration was measured with said system.

[2] = system: rabbit articular chondrocytes; assay: Matrix production of rabbit articular chondrocytes in the presence of IL-1; type: cell-based; conditions: 1 × 10^−6 M; IL-1β 1 ng/ml; until day 3; vehicle = 100
Protocol: Four NZW line rabbits (Kitayama Labes., Co Ltd.; male; 4-week-old) were sacrificed with bleeding under ether anesthesia and knee joints of femur side were collected aseptically. Only the cortical layer was scrapped with a surgical knife in phosphate buffer (pH 7.2) containing 0.2% glucose and then placed into a 50 ml tube containing phosphate buffered saline containing 0.2% glucose. The collected knee joint cortical layer was cut into as small sections as possible on a dish with a razor, combined with 50 ml of phosphate buffer (100 mg trypsin, 40 mg EDTA·4 Na; pH 7.2) containing 0.2% glucose, supplied with 10× trypsin-ethylenediamine tetraacetic acid tetra sodium salt (EDTA·4Na: GIBCO; Cat. No. 15400-054) and shaken at 37° C. for 15 minutes.
After shaking, the precipitates were collected by centrifugation (1,400 rpm) and washed twice with 40 ml of phosphate buffer (pH 7.2) with 0.2% glucose.
To the washed precipitates was added 40 ml of α-minimum essential medium (MEM: GIBCO; Cat. No. 12571-063) containing 60 mg of collagenase for cell diffusion (Wako Pure Chemical Industries, Ltd., 034-10533) and antibiotics (200 U/ml penicillin G and 200 μg/ml streptomycin sulfate) (GIBCO; Cat. No. 15140-122), and the mixture was transferred to a 100 ml beaker containing a sterilized stirrer bar.
The incubation was conducted in a CO2 incubator at 37° C. for 30 minutes under stirring with a stirrer bar. Deoxyribonuclease I (Takara Shuzo Co., LTD.; Cat. No. 2210A) was then added at a concentration of 70 U/ml. The cultivation was conducted under the same condition for another 30 minutes. The supernatant of the culture was collected in another vessel and the remaining cartilage slips were then cultured again for about 30 minutes in freshly prepared α-minimum essential medium containing 60 mg of collagenase and 70 U/m1 deoxyribonuclease I.
To the previously collected culture supernatant and the last culture, from which cartilage slips had been removed using a 40 μm Cell Strainer (FALCON; Cat. No. 2340), 10 ml of α-minimum essential medium (MEM: GIBCO; Cat. No. 12571-063) containing 10% fetal calf serum (GIBCO Cat. No. 10099-141) and antibiotics (200 U/ml penicillin G and 200 μg/ml streptomycin sulfate) (GIBCO; Cat. No. 15140-122) was added and centrifuged (1,400 rpm, 10 minutes).
The precipitates were washed twice with α-minimum essential medium containing 10% fetal calf serum and antibiotics, suspended with an appropriate volume of the same medium, and seeded into 48-well plates (20,000 cells/well). […]
After staining, the cells were washed 3 times with 1 ml of phosphate buffer (pH 7.2). Alcian blue which had stained cartilage matrix was dissolved with 0.25 ml of 6 M aqueous guanidine hydrochloride solution and a portion of which was used to determine the absorbance at 620 nm. […]

Structure (SMILES)	cAMP Production (picomol/well) ([1]; 1 × 10^−5)	cAMP Production (picomol/well) ([1]; 1 × 10^−6)	Proteoglycan Production (%) [2] [%]
CCOc1cc2cc(CO)c(CO)c(-c3ccnc(-n4nc(-c5cccnc5)c5ccccc5c4=O)c3)c2cc1OCC [Compound (2)]	23.2	13.8	143
COc1ccc(C(=O)Nc2c(Cl)cncc2Cl)cc1OC1CCCC1 [Compound (11)]	10.6	–	121
